1 compound from patent publication US4939133A, “N-substituted-2-hydroxy-α-oxo-benzeneacetamides and pharmaceutical compositions having activity as modulators of the arachidonic acid cascade” (Warner-Lambert Company, priority 1985, dated 1990) can be followed below.

The structures appear in SMILES notation.

For the experiment, the target named is T1, human leukocyte 5-lipoxygenase (Homo sapiens, UniProt P09917).
T1 construct: endogenous in cells; host or cells: leukocytes from fresh blood of normal adult men
T1 sequence (P09917 1-674): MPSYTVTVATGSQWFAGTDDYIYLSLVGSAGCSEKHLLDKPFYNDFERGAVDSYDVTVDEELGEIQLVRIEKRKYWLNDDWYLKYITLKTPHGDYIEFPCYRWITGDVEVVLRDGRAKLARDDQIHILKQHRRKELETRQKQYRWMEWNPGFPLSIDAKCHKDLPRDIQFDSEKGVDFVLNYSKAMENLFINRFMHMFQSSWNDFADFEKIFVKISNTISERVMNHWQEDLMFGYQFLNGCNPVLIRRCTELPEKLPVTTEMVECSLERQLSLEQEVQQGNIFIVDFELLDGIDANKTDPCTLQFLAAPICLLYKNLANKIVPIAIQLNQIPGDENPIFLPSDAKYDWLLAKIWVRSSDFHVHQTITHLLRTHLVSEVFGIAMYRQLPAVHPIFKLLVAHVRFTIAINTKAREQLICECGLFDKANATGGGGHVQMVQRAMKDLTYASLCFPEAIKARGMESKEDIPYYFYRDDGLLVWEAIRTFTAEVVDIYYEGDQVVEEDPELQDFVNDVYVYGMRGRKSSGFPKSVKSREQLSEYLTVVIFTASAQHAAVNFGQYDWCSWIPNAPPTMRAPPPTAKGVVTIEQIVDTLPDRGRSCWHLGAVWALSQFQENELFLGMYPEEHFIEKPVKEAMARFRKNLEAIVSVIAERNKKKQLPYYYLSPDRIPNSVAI
In words: 5-Lipoxygenase inhibition in human leukocytes, 5-HETE formation (5LOA1, 5LOA in Table 6). The experiment is classed as cell-based. The conditions noted are these: 50% inhibition of 5-HETE formation, E -number means X 10^-no., read-out: IC50 (5LOA). The source says: To Evaluate the Effect of Each Compounds as a 5-Lipoxygenase Inhibitor in Comparison to Standard Reference Agents in Human Leukocytes (5LOAl)
The purpose of this assay is to evaluate the activity of each compound as an inhibitor of human leukocyte 5-lipoxygenase.
Arachidonic acid and calcium ionophore A23187 are obtained from Sigma (St. Louis, MO). Silica gel plates, GF are obtained from Analtech (Newark, DE). Arachidonic acid, (1-^14 C) and 5-HETE (^3 H), 5-(S)-hydroxy-6-trans, 8,11,14-cis eicosatetraenoic acid, are obtained from New England Nuclear (Boston, MA). Six percent Dextran-70 in 0.9% NaCl is obtained from Cuffer Labs (Berkeley, CA).
Preparation of Leukocytes
Fresh blood from normal adult men who had not received any drugs for at least the previous five days is obtained by the Community Research Clinic (WL/PD) using venipuncture and collected into heparinized vacuotainer tubes. To every 100 ml of pooled blood is added 25 ml of dextran solution (6% dextran -70 in 0.9% sodium chloride containing 3% dextrose) and this is mixed gently in a plastic cylinder. The mixture is left to stand at room temperature for at least 90 minutes. The upper layer which is rich in leukocytes and platelets is then carefully decanted into 50 ml plastic tubes and centrifuged at about 100×g for eight minutes in and IEC centrifuge and rotor number 269 (about 600 rpm). The supernatant fluid is discarded and the pellet is resuspended in 10 ml of 0.87% ammonium chloride for exactly two minutes. This procedure is to lyse completely contaminating red blood cells. Leukocytes are then separated by centrifugation for ten minutes. The pellet is washed three times by suspension in 20 ml PBS (sodium chloride, 7.1 g; Na2 HPO4, 1.15 g; KH2 PO4,0.2 g, and KCl, 0.2 g/L) and centrifuged as before. The final pellet is suspended in PBS containing 0.87 mM CaCl2. Viability of the cells is then checked using trypan blue exclusion method and is found to be over 90%.
5-Lipoxygenase Enzyme Assay
Leukocyte cells in suspension (0.98 ml) are incubated with or without test compounds for five minutes at 37° C. in a shaking water bath. At this time a […] mixture is perpared per 1 ml of cell suspension: 100 mM arachidonic acid, 1 μl, 0.05 μCi ^14 C-arachidonic acid in 5 μl; 1 mM calcium ionophore A23187, 10 μl (1). This mixture is added and the incubation continued for five minutes. The reaction is stopped by adding four volumes of absolute ethanol and the mixture is kept in ice for 30 minutes. The floculated precipitate is separated by centrifugation at about 37,000×g for 20 minutes (Beckman Instruments rotor number 40). The alcohol extract is taken to dryness under a stream of nitrogen and the residue is dissolved in 100-200 μl absolute ethanol. At the time any turbidity is removed by centrifugation. An aliquot (25-50 μl) is applied onto 20×20 cm silica gel TLC plate and developed using the following solvent system: diethyl ether, petroleum ether (2040°C.),acetic acid (50:50: 1 v/v). Zones of 1 cm apart are scraped from the TLC plate and transferred to mini-vials. Methanol (0.5 ml) is added to dissolve the radioactivity adsorbed to the silica gel and scintillation fluid (H. P., Beckman), 5 ml is then added and vials are counted in a liquid scintillation counter. A sample of ^3 H-5-HETE is applied and used for the identification of the formed 5-HETE. Total radioactivity in the test as well as the control samples are normalized and the amount of 5-HETE present is calculated accordingly.
IC50 values are defined as the concentrations of test agents which caused a 50% inhibition of the formation of 5-HETE as compared to control and are determined by inspection of the concentration-response curves.

What is called IC50 is the point on the concentration scale where inhibition reaches its midpoint. In the case of `COc1ccc(CCc2ccc(NC(=O)c3ccc(C)cc3O)cc2)cc1OC` [Example 46, N-[4-[2-(3,4-Dimethoxyphenyl)ethyl]phenyl]-2-hydroxy-4-methylbenzamide], the IC50 is 500 nM.
